Here are results for 19 compounds from patent US5468756A, “Imidazonaphthyridine derivatives” (Kyowa Hakko Kogyo Co., Ltd., priority 1990, dated 1995).

Where only a bound is given, the exact number is not on record here.

Data set [1] concerns platelet activating factor (PAF)-induced mortality. In words: Inhibition effect on platelet activating factor (PAF)-induced mortality. Type of data set: in vivo, male dd mice. Particulars: Mus musculus, po, PAF 40 μg/kg i.v., 3 h, read-out: Survival rate of test compound-administered group; for responders at 50 mg/kg: 50 mg/kg p.o., n = 10, control group survival 0%; for responders at 100 mg/kg: n = 10, control group survival 0-20%. As for the experimental part:
e) Inhibition effect on platelet activating factor (PAF)-induced mortality
The experiment was carried out by a minor modification of a known method [Br. J. Pharmacol., 79, 595 (1983)]. Groups each consisting of 10 male dd mice (weighing 28 to 32 g) were used, and 50 or 100 mg/kg of the test compound or a saline (control) was orally administered. One hour after the administration of test compound, 40 μg/kg of PAF (manufactured by Avanti Polar Lipids Co., Ltd.) was intravenously administered. Three hours after PAF injection, the mortality of the animals was observed.

The subject of data set [2] is passive Schultz-Dale reaction. In words: Effect on passive Schultz-Dale reaction (broncho-dilative activity), sensitized tracheal strips contracted by antigen. Also on record: species or system male Hartley guinea pigs. Particulars: guinea pig tracheal zig-zag strips, 37° C., antigen egg white albumin 1 μg/ml; read-out: Passive Schultz-Dale reaction IC50 (concentration of 50% relaxation rate). As for the experimental part:
d) Effect on passive Schultz-Dale reaction (broncho-dilative activity)
Male Hartley guinea pigs weighing 350 to 500 g were passively sensitized by intraperitoneal injection of rabbit anti-OA serum prepared in advance by the method of Koda et al. [Folia Pharmacol., Japon 66, 237, (1970)]. After 24 hours, the guinea pigs were stunned and exsanguinated, and then tracheae were removed. The zig-zag strips of the tracheae were prepared by the method of Emmerson and Mackay [J. Pharm. Pharmacol., 31, 798, (1979)]. The strips were suspended in Krebs-Henseleit solution at 37° C. under aeration of a mixed gas of 95% oxygen and 5% carbon dioxide, and equilibrated for one hour. Then, antigen (egg white albumin) was introduced in the solution (final concentration; 1 μg/ml), and the contraction was measured by isotonictransducer (TD-112s, made by Nihon Kohden K.K., Japan) and recorded on a recorder (Type 3066, made by Yokogawa-Hokushin Denki, K.K. Japan). After the contraction curves reached a plateau, the test compounds were successively added in order to get cumulative concentration-relaxation curves. The concentration of 50% relaxation rate (IC50) was calculated from the regression line, which was obtained from the cumulative concentration-relaxation curves.

The subject of data set [3] is carrageenin-induced paw edema. In words: Effect on carrageenin-induced paw edema. Particulars: Rattus norvegicus, 3 hours after carrageenin, read-out: Suppression rate for paw swelling, carrageenin-induced edema; for inhibition in vivo at 100 mg/kg: p.o.; for inhibition in vivo at 50 mg/kg: po, 50 mg/kg P.O. Type of data set: in vivo, male Wistar rats. As for the experimental part: a) Effect on carrageenin-induced paw edema
(§1) Male Wistar rats weighing 150 to 160 g (n=3-5) were used in the experiment. After the right hind paw volume was measured with the plethysmograph (TK-101; Unicom Co., Ltd.), the test compound (25, 50 or 100 mg/kg) was orally administered. After one hour, 0.1 ml of 1% carrageenin (λ-carrageenin; PICNIN-A®, Zushi Kagaku Co., Ltd.) was subcutaneously injected into the right hind paw footpad. Three hours after the injection of carrageenin, the right hind paw volume was measured and the swelling rate was determined by the following equation 1. [formula] Vt: the right hind paw volume measured 3 hours after the injection of carrageenin
(§2) Vo: the right hind paw volume measured prior to the injection of carrageenin
(§3) The suppression rate was calculated by the following equation 2. [formula] Swt: the swelling rate of the group administered with the test compound Swc: the swelling rate of the control group administered with physiological saline solution
In general terms: The carrageenan paw model is a standard test of acute inflammation.

The subject of data set [4] is zymosan-induced paw edema. The data set is described as follows: Effect on zymosan-induced paw edema. Particulars: Rattus norvegicus, po; 25 mg/kg P.O.; read-out: Suppression rate for paw swelling, zymosan-induced edema. Type of data set: in vivo, male Wistar rats. As for the experimental part: as §1, §2, §3
b) Effect on zymosan-induced paw edema
The experiment was carried out in the same manner as in the carrageenin-induced paw edema test except that 1% zymosan (Zymosan A®; Sigma Chemical Co.) was used in place of 1% carrageenin and the right hind paw volume was measured […] the injection of the edema-inducing substance instead of 3 hours. The swelling rate and the suppression rate were calculated by equation 1 and equation 2, respectively.

Data set [5] deals with ddY strain male mice. In words: Acute toxicity (Minimum Lethal Dose). Type of data set: in vivo. As for the experimental part: The test compound was orally and intraperitoneally administered to ddY strain male mice weighing 20 to 25 g. MLD (Minimum Lethal Dose) was determined by observing the mortality for […] after the administration.

Turning to `Cc1cccc(Cn2cnc3c4cccnc4n(-c4ccccc4)c(=O)c32)c1` [Compound 41, 3-(3-Methylphenyl)methyl-5-phenyl-3H-imidazo[4,5-c][1,8]naphthyridin-4(5H)-one], the responders at 50 mg/kg in data set [1] came to 80%. Besides, the IC50 in data set [2] was 10 µM. Further, the inhibition in vivo at 100 mg/kg in data set [3] came to 47.7%. The inhibition in vivo at 25 mg/kg in data set [4] was determined as 33.3%.
With `O=c1c2c(ncn2Cc2ccc(Cl)cc2)c2cccnc2n1-c1ccccc1` [Compound 40, 3-(4-Chlorophenyl)methyl-5-phenyl-3H-imidazo[4,5-c][1,8]naphthyridin-4(5H)-one], the responders at 100 mg/kg in data set [1] turned out to be 40%. Besides, the inhibition in vivo at 100 mg/kg in data set [3] was found to be 21.3%. Further, in data set [4], the inhibition in vivo at 25 mg/kg is 42.8%.
The like results for `COc1ccc(Cn2cnc3c4cccnc4n(-c4ccccc4)c(=O)c32)cc1` [Compound 45, 3-(4-Methoxyphenyl)methyl-5-phenyl-3H-imidazo[4,5-c][1,8]naphthyridin-4(5H)-one] were, in that order, 40%, 37.8% and 66.9%.
For the compound `O=c1c2[nH]c(S)nc2c2cccnc2n1-c1ccccc1` [Compound 20, 2-Mercapto-5-phenyl-3H-imidazo[4,5-c][1,8]naphthyridin-4(5H)-one], the responders at 100 mg/kg in data set [1] was determined as 30%. In data set [2], the IC50 is over 10 µM. Moreover, the inhibition in vivo at 100 mg/kg in data set [3] came out at 6.8%.
On to `COc1cccc(Cn2cnc3c4cccnc4n(-c4ccccc4)c(=O)c32)c1` [Compound 46, 3-(3-Methoxyphenyl)methyl-5-phenyl-3H-imidazo[4,5-c][1,8]naphthyridin-4(5H)-one], for which the responders at 100 mg/kg in data set [1] was found to be 10%. Besides, the inhibition in vivo at 25 mg/kg in data set [4] came to 43.5%.
Regarding `O=c1c2c(ncn2Cc2ccc([N+](=O)[O-])cc2)c2cccnc2n1-c1ccccc1` [Compound 42, 3-(4-Nitrophenyl)methyl-5-phenyl-3H-imidazo[4,5-c][1,8]naphthyridin-4(5H)-one], the responders at 50 mg/kg in data set [1] is 100%. In addition, in data set [3], the inhibition in vivo at 100 mg/kg came out at 35.9%. In data set [4], the inhibition in vivo at 25 mg/kg turned out to be 45.6%.
Take `O=c1c2c(ncn2Cc2cccc([N+](=O)[O-])c2)c2cccnc2n1-c1ccccc1` [Compound 47, 3-(3-Nitrophenyl)methyl-5-phenyl-3H-imidazo[4,5-c][1,8]naphthyridin-4(5H)-one]: the responders at 100 mg/kg in data set [1] is 0%. Besides, the inhibition in vivo at 100 mg/kg in data set [3] amounted to 33.1%. For the same compound, in data set [5], the “MLD (Minimum Lethal Dose) i.p.” value is given as over 100 mg/kg and the “MLD (Minimum Lethal Dose) p.o.” value is over 300 mg/kg. In addition, the inhibition in vivo at 25 mg/kg in data set [4] worked out at 35.7%.
For `Cc1cccc(-n2c(=O)c3c(ncn3Cc3ccccc3)c3cccnc32)c1` [Compound 58, 5-(3-Methylphenyl)-3-benzyl-3H-imidazo[4,5-c][1,8]naphthyridin-4(5H)-one], the responders at 100 mg/kg in data set [1] is 100%. The inhibition in vivo at 50 mg/kg in data set [3] was determined as 36.3%. Besides, in data set [5], the “MLD (Minimum Lethal Dose) i.p.” value was over 100 mg/kg and the “MLD (Minimum Lethal Dose) p.o.” value is reported as over 300 mg/kg. Besides, the inhibition in vivo at 25 mg/kg in data set [4] turned out to be 47%.
Consider `CC(C)n1cnc2c(=O)n(-c3ccccc3)c3ncccc3c21` [Compound 6, 1-Isopropyl-5-phenyl-1H-imidazo[4,5-c][1,8]naphthyridin-4(5H)-one], for which the responders at 100 mg/kg in data set [1] turned out to be 70%. Further, the IC50 in data set [2] is over 10 µM. Besides, the inhibition in vivo at 100 mg/kg in data set [3] was found to be 22%.
The like results for `CCn1cnc2c(=O)n(-c3ccccc3)c3ncccc3c21` [Compound 5, 1-Ethyl-5-phenyl-1H-imidazo[4,5-c][1,8]naphthyridin-4(5H)-one] were, in that order, 80%, over 10 µM and 20.6%.
The like results for `O=c1c2[nH]c(-c3ccccc3)nc2c2cccnc2n1-c1ccccc1` [Compound 19, 2,5-Diphenyl-3H-imidazo[4,5-c][1,8]naphthyridin-4(5H)-one] were, in that order, 60%, over 10 µM and 1.7%.
As to `O=c1c2[nH]c(O)nc2c2cccnc2n1-c1ccccc1` [Compound 21, 2-Hydroxy-5-phenyl-3H-imidazo[4,5-c][1,8]naphthyridin-4(5H)-one], the responders at 100 mg/kg in data set [1] was 30%. Besides, the IC50 in data set [2] amounted to 2 µM. Moreover, in data set [3], the inhibition in vivo at 100 mg/kg was 2.3%. In addition, in data set [5], the “MLD (Minimum Lethal Dose) i.p.” value is given as over 100 mg/kg and the “MLD (Minimum Lethal Dose) p.o.” value is reported as over 300 mg/kg.
As for `Cc1ccc(Cn2cnc3c4cccnc4n(-c4ccccc4)c(=O)c32)cc1` [Compound 43, 3-(4-Methylphenyl)methyl-5-phenyl-3H-imidazo[4,5-c][1,8]naphthyridin-4(5H)-one], the responders at 100 mg/kg in data set [1] was determined as 70%. The inhibition in vivo at 100 mg/kg in data set [3] stood at 39.2%. Moreover, in data set [5], the “MLD (Minimum Lethal Dose) i.p.” value was over 100 mg/kg and the “MLD (Minimum Lethal Dose) p.o.” value is over 300 mg/kg. The inhibition in vivo at 25 mg/kg in data set [4] turned out to be 56.2%.
Take `O=c1c2c(ncn2Cc2ccccc2)c2cccnc2n1-c1cccc(Cl)c1` [Compound 59, 5-(3-Chlorophenyl)-3-benzyl-3H-imidazo[4,5-c][1,8]naphthyridin-4(5H)-one]: the responders at 100 mg/kg in data set [1] amounted to 70%. Also, the inhibition in vivo at 50 mg/kg in data set [3] worked out at 36.4%. Also, in data set [5], the “MLD (Minimum Lethal Dose) i.p.” value was over 100 mg/kg and the “MLD (Minimum Lethal Dose) p.o.” value was over 300 mg/kg. The inhibition in vivo at 25 mg/kg in data set [4] is 47.9%.
For `CC(c1ccccc1)n1cnc2c3cccnc3n(-c3ccccc3)c(=O)c21` (stereo not drawn) [Compound 16, 3-(α-Methyl)benzyl-5-phenyl-3H-imidazo[4,5-c][1,8]naphthyridin-4(5H)-one], the responders at 100 mg/kg in data set [1] was 0%. Besides, the IC50 in data set [2] is over 10 µM. Moreover, the inhibition in vivo at 100 mg/kg in data set [3] turned out to be 3.5%. Also, in data set [5], the “MLD (Minimum Lethal Dose) i.p.” value was over 100 mg/kg and the “MLD (Minimum Lethal Dose) p.o.” value is reported as over 300 mg/kg.
As for `CCCCCCn1cnc2c3cccnc3n(-c3ccccc3)c(=O)c21` [Compound 30, 3-Hexyl-5-phenyl-3H-imidazo[4,5-c][1,8]naphthyridin-4(5H)-one], the responders at 100 mg/kg in data set [1] was 90%. The inhibition in vivo at 100 mg/kg in data set [3] was 48.5%. In data set [5], the “MLD (Minimum Lethal Dose) i.p.” value is given as over 100 mg/kg and the “MLD (Minimum Lethal Dose) p.o.” value was over 300 mg/kg. Also, the inhibition in vivo at 25 mg/kg in data set [4] came out at 33.5%.
As to `Cc1cccc(-n2c(=O)c3[nH]cnc3c3cccnc32)c1` [Compound 25, 5-(3-Methyl)phenyl-3H-imidazo[4,5-c][1,8]naphthyridin-4(5H)-one], the responders at 100 mg/kg in data set [1] is 60%. Besides, the IC50 in data set [2] is over 10 µM. Further, the inhibition in vivo at 100 mg/kg in data set [3] came out at 13.8%.
Regarding `O=C(O)Cn1cnc2c3cccnc3n(-c3ccccc3)c(=O)c21` [Compound 17, 3-Carboxymethyl-5-phenyl-3H-imidazo[4,5-c][1,8]naphthyridin-4(5H)-one], in data set [1], the responders at 100 mg/kg was 30%. The IC50 in data set [2] was over 10 µM. In data set [3], the inhibition in vivo at 100 mg/kg came out at 10.8%. Also, in data set [5], the “MLD (Minimum Lethal Dose) i.p.” value is reported as over 100 mg/kg and the “MLD (Minimum Lethal Dose) p.o.” value is given as over 300 mg/kg.
For `O=c1c2[nH]cnc2c2cccnc2n1-c1cccc(Cl)c1` [Compound 26, 5-(3-Chloro)phenyl-3H-imidazo[4,5-c][1,8]naphthyridin-4(5H)-one], the responders at 100 mg/kg in data set [1] amounted to 90%. The IC50 in data set [2] was over 10 µM. Besides, the inhibition in vivo at 100 mg/kg in data set [3] worked out at 15.2%.
